One experiment concerns the target EGFR (Homo sapiens, UniProt P00533). Briefly: EGFR signaling (pEGFR Tyr1068/total EGFR MSD) in A431 cells. The format is cell-based. On the set-up: endogenous in cells; host or cells: A431, N87. The note with it: for EC50: A431 cells, read-out: A431 pEGFR EC50; for Selectivity A431 EC50/BT474 EC50: ratio A431 pEGFR EC50 to BT474 pHER2 EC50; for Selectivity A431 EC50/HEKYVMA EC50: ratio A431 pEGFR EC50 to HEK YVMA pHER2 EC50. The method, then:
In addition to the engineered cell lines, the following cell lines were used: BT474 (human breast carcinoma), N87 (human gastric carcinoma), NCI-H1781 (human lung adenocarcinoma), and A431 (human epidermoid carcinoma); all cell lines were obtained from the American Type Culture Collection (ATCC, Manassas, VA). NCI-H1781 were grown in complete RPMI 1640 (Life Technologies, Carlsbad, CA) supplemented with 15% fetal bovine serum (FBS, Life Technologies, Carlsbad, CA) and 1% Penicillin-Streptomycin (P/S, Life Technologies, Carlsbad, CA). N87 cells were grown in complete RPMI 1640 supplemented with 10% FBS and 1% P/S. BT474 and A431 cells were grown in DMEM (Life Technologies, Carlsbad, CA) supplemented with 10% FBS and 1% P/S. All cells were maintained and propagated in a humidified 5% CO2 incubator at 37° C.
A431 Cells were plated in 96-well tissue-culture treated plates in full media for 6 h, then starved with media containing 0.1% FBS for overnight. Media was replaced with low serum media (1% FBS) containing compound at 10, 3.3, 1.1, 0.37, 0.12, 0.041, 0.014, 0.005 μM or DMSO control (0.1%). Cells were incubated for 1.5 hr, then stimulated with 100 ng/mL human EGF (PeproTech, Rocky Hill, NJ) for 10 minutes. Cells were washed with cold PBS, and lysed for 30 min on ice in complete MSD lysis buffer (prepared as described in HER2 Signaling Method); lysates were stored at −70° C. until further analysis. EGFR signaling was evaluated using phospho (Tyr 1068)/total EGFR whole cell lysate kit (Meso-Scale Discovery, Gaithersburg, MD). The phospho EGFR signal was normalized to total EGFR for each sample; results are reported as % DMSO control. The normalized data was fitted using a sigmoidal curve analysis program (Graph Pad Prism version 6) with variable Hill slope to determine EC50 values. The results are provided in Table 4, under column titled “A431-pEGFR EC50”.

Another experiment has as its target HER2YVMA (Homo sapiens, UniProt P04626, INS775YVMA). Briefly: HER2 signaling (pHER2) in Hek293-HER2YVMA cells. Particulars: 1.5 hr compound, 1% FBS, read-out: HEKYVMA pHER2 EC50. The format is cell-based. On the set-up: expressed in transfected cells; host or cells: HEK293 (pool), Ba/F3 (clones), BEAS2B (clones); lentiviral vector pCDH-CMV-MCS-EF1-Neo. The method, then: Cell culture, plasmid cloning, and lentiviral transduction were carried out according to standard procedures. The Human HER2 cDNA construct in pCMV6-Entry for the HER2 wildtype (WT) expression was obtained from Origene. The HER2 cDNA including the 12-nucleotide insertion corresponding to YVMA insertion (HER2YVMA) was codon optimized, synthesized and cloned by GenScript (Piscataway, NJ) in pcDNA3.1. The lentiviral constructs expressing HER2YVMA and HER2 WT were sub-cloned using PCR at System Biosciences (SBI, Mountainview, CA) into lentiviral vectors pCDH-CMV-MCS-EF1-Neo and lentiviral particles were generated.
Engineered lines expressing HER2YVMA and HER2 WT were prepared in HEK293 (human embryonic kidney cells), Ba/F3 (Interleukin 3 (IL3)-dependent murine pro B cell line), and BEAS2B (primary immortalized human bronchial epithelial cell line). Ba/F3, BEAS2B, and HEK293 cells were obtained from the American Type Culture Collection (ATCC, Manassas, VA). Parental Ba/F3 cells were grown in suspension in complete RPMI 1640 supplemented with 10% FBS and 1% P/S and 10 ng/ml interleukin 3 (IL3, Sigma-Aldrich). Hek293 and BEAS2B cells were grown as monolayers in DMEM supplemented with 10% FBS and 1% P/S. All cells were maintained and propagated in a humidified 5% CO2 incubator at 37° C.
To generate Ba/F3, BEAS2B, and Hek-293 cells engineered with lentivirus to express HER2 WT or HER2YVMA, the cells were transduced with lentiviruses at multiplicity of infection (MOI) of 1 or 10; transduced cells were selected and maintained with G418 ([…]) (Geneticin, Life Technologies, Carlsbad, CA). Ba/F3 engineered cells were subjected to gradual withdrawal of interleukin 3 (IL-3, Sigma-Aldrich). After selection, IL3 independent Ba/F3 HER2YVMA, and BEAS2B HER2YVMA cells were cloned by limiting dilution. Hek293 HER2YVMA cells were used as pool. HER2 and phospho HER2 levels were confirmed by flow cytometery and immunoassay (MSD, Meso-Scale Discovery, Rockville, Maryland).
HER2 signaling was assessed in BT474 and N87 cell lines which endogenously overexpress the HER2 wildtype (WT) protein, in NCI-H1781 cells which endogenously expresses a HER2 mutant protein containing a VC insertion in the kinase domain (HER2VC or G776delinsVC), and in engineered cell lines transduced to express the Her2 mutant protein containing the YVMA insertion (Hek293-HER2YVMA and BEAS2B-HER2YVMA).
BT474, N87, and NCI-H1781 were plated in 96-well tissue-culture treated plates (Corning Costar, Sigma-Aldrich) in full media and incubated overnight. Hek293-HER2YVMA and BEAS2B-HER2YVMA cells were plated in 96-well poly-D-lysine treated plates (BD Bioscience, San Jose, CA). For treatment with test compounds, the media was replaced with corresponding low serum media (1% FBS) containing test compound at 1.1, 0.37, 0.12, 0.041, 0.014, 0.005, 0.0014, 0.0005 μM or DMSO control (0.1%). Cells were incubated with compound for 1.5 hr at 37° C. After compound treatment, the media was removed and cells were lysed for 30 min on ice in complete MSD lysis buffer (prepared using MSD base lysis buffer (Meso-Scale Discovery) supplemented with cOmplete, EDTA-free Protease inhibitor cocktail (Roche), Phosphatase Inhibitor Cocktails 2 and 3 (Sigma-Aldrich), and 1 mM PMSF (Sigma-Aldrich)). Lysates were stored at −70° C. until further analysis.
HER2 signaling was evaluated using phospho (Tyr1248)/total ErbB2 whole cell lysate MSD plates (Meso-Scale Discovery, Gaithersburg, MD). The phospho HER2 signal was normalized to total HER2 for each sample; results are reported as % DMSO control. The normalized data was fitted using a sigmoidal curve analysis program (Graph Pad Prism version 6) with variable Hill slope to determine EC50 values.
The HER2 signaling results are provided in Table 4, under columns titled “BT474-pHER2 EC50”, “N87-pHER2 EC50”, and “NCI-H1781-pHER2 EC50”. […]

Sequence of EGFR (P00533 25-1210): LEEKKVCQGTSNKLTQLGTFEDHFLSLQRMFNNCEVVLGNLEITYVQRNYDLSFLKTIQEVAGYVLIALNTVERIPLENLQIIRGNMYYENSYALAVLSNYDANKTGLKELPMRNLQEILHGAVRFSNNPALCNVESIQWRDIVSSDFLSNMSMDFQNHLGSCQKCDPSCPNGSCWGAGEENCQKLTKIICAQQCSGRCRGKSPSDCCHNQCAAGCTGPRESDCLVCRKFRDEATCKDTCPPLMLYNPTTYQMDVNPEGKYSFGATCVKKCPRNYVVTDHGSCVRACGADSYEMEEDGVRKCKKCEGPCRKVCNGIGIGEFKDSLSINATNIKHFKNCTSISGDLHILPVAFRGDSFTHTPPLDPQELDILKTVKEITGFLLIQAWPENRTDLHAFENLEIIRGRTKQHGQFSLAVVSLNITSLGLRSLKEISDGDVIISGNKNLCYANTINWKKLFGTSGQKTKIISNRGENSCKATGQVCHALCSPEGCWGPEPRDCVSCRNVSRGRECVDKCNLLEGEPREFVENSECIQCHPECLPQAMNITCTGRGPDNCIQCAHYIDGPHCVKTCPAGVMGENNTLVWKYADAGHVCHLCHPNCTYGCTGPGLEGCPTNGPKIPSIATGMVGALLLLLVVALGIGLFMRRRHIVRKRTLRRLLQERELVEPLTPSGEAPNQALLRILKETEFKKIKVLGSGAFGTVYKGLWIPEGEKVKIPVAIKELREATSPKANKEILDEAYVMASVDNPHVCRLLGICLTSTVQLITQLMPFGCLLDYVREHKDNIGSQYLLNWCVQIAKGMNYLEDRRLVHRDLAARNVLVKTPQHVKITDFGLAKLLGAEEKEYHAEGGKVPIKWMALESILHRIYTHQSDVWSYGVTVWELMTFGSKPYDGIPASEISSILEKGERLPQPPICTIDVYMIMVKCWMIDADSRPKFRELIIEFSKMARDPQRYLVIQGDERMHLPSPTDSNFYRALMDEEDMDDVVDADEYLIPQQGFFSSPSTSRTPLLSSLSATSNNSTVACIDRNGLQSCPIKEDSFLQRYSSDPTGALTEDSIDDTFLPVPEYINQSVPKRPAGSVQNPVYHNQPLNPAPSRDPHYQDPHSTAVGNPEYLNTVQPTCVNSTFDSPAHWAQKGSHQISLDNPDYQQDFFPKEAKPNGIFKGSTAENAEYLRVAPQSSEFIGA
Sequence of HER2YVMA (P04626 with tags, fused parts or gaps INS775YVMA): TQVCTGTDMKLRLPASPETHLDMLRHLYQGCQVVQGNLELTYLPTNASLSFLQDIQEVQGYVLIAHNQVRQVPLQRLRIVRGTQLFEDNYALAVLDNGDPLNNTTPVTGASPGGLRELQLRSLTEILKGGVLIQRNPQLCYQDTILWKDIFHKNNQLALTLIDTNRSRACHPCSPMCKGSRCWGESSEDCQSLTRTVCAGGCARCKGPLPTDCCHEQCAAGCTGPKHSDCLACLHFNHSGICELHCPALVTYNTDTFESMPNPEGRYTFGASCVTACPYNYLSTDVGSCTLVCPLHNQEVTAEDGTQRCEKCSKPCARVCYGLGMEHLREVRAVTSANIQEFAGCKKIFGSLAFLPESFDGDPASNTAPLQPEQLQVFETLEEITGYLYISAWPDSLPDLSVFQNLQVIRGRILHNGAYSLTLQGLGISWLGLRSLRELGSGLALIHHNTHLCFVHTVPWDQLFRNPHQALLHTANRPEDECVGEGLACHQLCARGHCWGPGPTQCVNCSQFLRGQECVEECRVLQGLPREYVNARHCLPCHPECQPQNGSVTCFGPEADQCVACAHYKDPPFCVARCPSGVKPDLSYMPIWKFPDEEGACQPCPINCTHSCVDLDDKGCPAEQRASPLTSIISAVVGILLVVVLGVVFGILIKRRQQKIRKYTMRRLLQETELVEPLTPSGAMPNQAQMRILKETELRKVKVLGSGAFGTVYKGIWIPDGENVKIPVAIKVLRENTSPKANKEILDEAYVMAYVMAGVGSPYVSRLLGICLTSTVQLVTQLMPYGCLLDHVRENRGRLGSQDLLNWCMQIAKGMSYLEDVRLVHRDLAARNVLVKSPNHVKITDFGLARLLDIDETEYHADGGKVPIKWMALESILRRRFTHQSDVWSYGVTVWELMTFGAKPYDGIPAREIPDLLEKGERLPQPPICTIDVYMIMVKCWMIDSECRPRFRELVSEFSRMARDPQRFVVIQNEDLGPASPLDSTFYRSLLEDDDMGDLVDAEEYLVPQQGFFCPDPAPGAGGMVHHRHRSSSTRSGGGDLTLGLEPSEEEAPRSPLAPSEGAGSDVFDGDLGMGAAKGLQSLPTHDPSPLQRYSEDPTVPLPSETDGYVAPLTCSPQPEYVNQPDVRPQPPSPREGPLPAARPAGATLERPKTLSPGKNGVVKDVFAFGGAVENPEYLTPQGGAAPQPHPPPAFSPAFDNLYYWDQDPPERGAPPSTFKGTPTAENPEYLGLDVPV

Turning to `Cc1ccc(Oc2ccc(Nc3ncnc4sc5c(c34)CCN(C(=O)/C=C/CN3CCC[C@H](n4cccn4)C3)C5)cc2C)cn1` [Compound 112], at EGFR, the EC50 is 100 to 1000 nM; the “Selectivity A431 EC50/BT474 EC50” value was “B (B: ≥ 20 and < 100)”; the “Selectivity A431 EC50/HEKYVMA EC50” value was “C (C: ≥ 10 and < 20)”. In addition, the EC50 on HER2YVMA is below 100 nM.

For the compound `Cc1ccc(Oc2ccc(Nc3ncnc4sc5c(c34)CCN(C(=O)/C=C/CN3CCO[C@H](CO)C3)C5)cc2C)cn1` [Compound 136], at EGFR, the EC50 lay in the range of 100 to 1000 nM; the “Selectivity A431 EC50/BT474 EC50” value was “B (B: ≥ 20 and < 100)”; the “Selectivity A431 EC50/HEKYVMA EC50” value was “C (C: ≥ 10 and < 20)”. The EC50 at HER2YVMA is below 100 nM.

With `Cc1cc(Nc2ncnc3sc4c(c23)CCN(C(=O)/C=C/CN(C)C)C4)ccc1Oc1ccc2scnc2c1` [Compound 107, (E)-1-(4-((4-(benzo[d]thiazol-5-yloxy)-3-methylphenyl)amino)-5,8-dihydropyrido[4′,3′:4,5]thieno[2,3-d]pyrimidin-7(6H)-yl)-4-(dimethylamino)but-2-en-1-one], at EGFR, the EC50 is below 100 nM; the “Selectivity A431 EC50/BT474 EC50” value is “C (C: ≥ 10 and < 20)”; the “Selectivity A431 EC50/HEKYVMA EC50” value is recorded as “A (A: ≥100)”. On HER2YVMA, the EC50 was below 100 nM.

For the compound `Cc1ccc(Oc2ccc(Nc3ncnc4sc5c(c34)CCN(C(=O)/C=C/CN3CCC(CO)(CO)CC3)C5)cc2C)cn1` [Compound 135], on EGFR, the EC50 lay within 1000 to 10000 nM; the “Selectivity A431 EC50/BT474 EC50” value was “B (B: ≥ 20 and < 100)”; the “Selectivity A431 EC50/HEKYVMA EC50” value was “D (D: ≥ 5 and < 10)”. For the same compound, on HER2YVMA, the EC50 lay within 100 to 350 nM.

For the compound `COc1cc(Nc2ncnc3sc4c(c23)CCN(C(=O)/C=C/CN(C)C)C4)ccc1Oc1ccccc1` [Compound 7, (E)-4-(dimethylamino)-1-(4-((3-methoxy-4-phenoxyphenyl)amino)-5,8-dihydropyrido[4′,3′:4,5]thieno[2,3-d]pyrimidin-7(6H)-yl)but-2-en-1-one], on EGFR, the EC50 was below 100 nM; the “Selectivity A431 EC50/BT474 EC50” value is “D (D: ≥ 5 and < 10)”; the “Selectivity A431 EC50/HEKYVMA EC50” value is recorded as “F (F: < 1)”. For the same compound, the EC50 on HER2YVMA was below 100 nM.

In the case of `Cc1ccc(Oc2ccc(Nc3ncnc4sc5c(c34)CCN(C(=O)/C=C/CN(C)C)CC5)cc2Cl)cn1` [Compound 167, (E)-1-(4-((3-Chloro-4-((6-methylpyridin-3-yl)oxy)phenyl)amino)-8,9-dihydro-5H-pyrimido[5′,4′:4,5]thieno[2,3-d]azepin-7(6H)-yl)-4-(dimethylamino)but-2-en-1-one], at EGFR, the EC50 is 100 to 1000 nM; the “Selectivity A431 EC50/BT474 EC50” value was “B (B: ≥ 20 and < 100)”; the “Selectivity A431 EC50/HEKYVMA EC50” value is “E (E: >1 and < 5)”. The concentration for a half-maximal effect (EC50) at HER2YVMA lay in the range of 100 to 350 nM.

With `Cc1ccc(Oc2ccc(Nc3ncnc4sc5c(c34)CCN(C(=O)/C=C/CN3CCOCC3)C5)cc2C)cn1` [Compound 17, (E)-1-(4-((3-Methyl-4-((6-methylpyridin-3-yl)oxy)phenyl)amino)-5,6-dihydropyrido[4′,3′:4,5]thieno[2,3-d]pyrimidin-7(8H)-yl)-4-morpholinobut-2-en-1-one], at EGFR, the EC50 fell in the range of 100 to 1000 nM; the “Selectivity A431 EC50/BT474 EC50” value is “C (C: ≥ 10 and < 20)”; the “Selectivity A431 EC50/HEKYVMA EC50” value is reported as “A (A: ≥100)”. In addition, the EC50 on HER2YVMA is below 100 nM.

With `Cc1ccc(Oc2ccc(Nc3ncnc4sc5c(c34)C(C)CN(C(=O)C=CCN3CCOCC3)C5)cc2C)cn1` (single isomer, unassigned) [Compound 176], on EGFR, the EC50 was in the range of 1000 to 10000 nM; the “Selectivity A431 EC50/BT474 EC50” value was “B (B: ≥ 20 and < 100)”; the “Selectivity A431 EC50/HEKYVMA EC50” value was “B (B: ≥ 20 and < 100)”. Also, the EC50 at HER2YVMA is below 100 nM.

Consider `Cc1ccc(Oc2ccc(Nc3ncnc4sc5c(c34)CCN(C(=O)/C=C/CN3CCC(O)C(C)(C)C3)C5)cc2C)cn1` (stereo not drawn) [Compound 114], for which, on EGFR, the EC50 was in the range of 100 to 1000 nM; the “Selectivity A431 EC50/BT474 EC50” value was “B (B: ≥ 20 and < 100)”; the “Selectivity A431 EC50/HEKYVMA EC50” value is “B (B: ≥ 20 and < 100)”. The EC50 on HER2YVMA was below 100 nM.

Consider `COc1ccc(Oc2ccc(Nc3ncnc4sc5c(c34)CN(C(=O)/C=C/CN(C)C)C5)cc2C)cn1` [Compound 128, (E)-4-(dimethylamino)-1-(4-((4-((6-methoxypyridin-3-yl)oxy)-3-methylphenyl)amino)-5,7-dihydro-6H-pyrrolo[3′,4′:4,5]thieno[2,3-d]pyrimidin-6-yl)but-2-en-1-one], for which, at EGFR, the EC50 lay within 1000 to 10000 nM; the “Selectivity A431 EC50/BT474 EC50” value is “B (B: ≥ 20 and < 100)”; the “Selectivity A431 EC50/HEKYVMA EC50” value is “B (B: ≥ 20 and < 100)”. On HER2YVMA, the EC50 is below 100 nM.

Consider `Cc1ccc(Oc2ccc(Nc3ncnc4sc5c(c34)C(C)N(C(=O)/C=C/CN(C)C)C5)cc2C)cn1` (stereo not drawn) [Compound 141, (E)-4-(dimethylamino)-1-(5-methyl-4-((3-methyl-4-((6-methylpyridin-3-yl)oxy)phenyl)amino)-5,7-dihydro-6H-pyrrolo[3′,4′:4,5]thieno[2,3-d]pyrimidin-6-yl)but-2-en-1-one], for which, at EGFR, the EC50 was in the range of 100 to 1000 nM; the “Selectivity A431 EC50/BT474 EC50” value was “B (B: ≥ 20 and < 100)”; the “Selectivity A431 EC50/HEKYVMA EC50” value was “B (B: ≥ 20 and < 100)”. Also, at HER2YVMA, the EC50 was below 100 nM.

Turning to `C=CC(=O)N1Cc2sc3ncnc(Nc4ccc(Oc5ccc(C)nc5)c(C)c4)c3c2C(C)C1` (single isomer, unassigned) [Compound 146], at EGFR, the EC50 is below 100 nM; the “Selectivity A431 EC50/BT474 EC50” value was “C (C: ≥ 10 and < 20)”; the “Selectivity A431 EC50/HEKYVMA EC50” value was “D (D: ≥ 5 and < 10)”. Also, the EC50 at HER2YVMA is below 100 nM.

A word on the EC50: it is the concentration needed to bring the measured effect to its halfway point.

Values taken from US20240391931A1 (Bristol-Myers Squibb Company, priority 2021, published 2024).
